{
  "source": "ChEMBL document CHEMBL3627641",
  "about": "“Identification of a new p53/MDM2 inhibitor motif inspired by studies of chlorofusin” (Bioorg Med Chem Lett, 2015)",
  "key": {"SJSA-1": {"tested_on": "SJSA-1", "test": "Cytotoxic activity against human SJSA1 cells", "assay_type": "functional, cell-based"}, "A-375": {"tested_on": "A-375", "test": "Cytotoxic activity against human A375 cells", "assay_type": "functional, cell-based"}, "[1]": {"settings": "Homo sapiens, SJSA-1, read-out: IC50; call rule not given here"}},
  "data": [
    {"smiles": "COc1ccc(-c2cn(CCC[C@H](NC(=O)OCC3c4ccccc4-c4ccccc43)C(=O)O)nn2)cc1", "values": [
      {"measurement": "IC50", "setting": "SJSA-1; sjsa-1", "result": "Not Active"},
      {"measurement": "IC50", "setting": "A-375; a-375", "result": "Not Active"}
    ]},
    {"smiles": "Cc1ccc(-c2cn(CCC[C@H](NC(=O)OCC3c4ccccc4-c4ccccc43)C(=O)O)nn2)cc1", "values": [
      {"measurement": "IC50", "setting": "SJSA-1; [1]", "result": 33.1, "unit": "µM"},
      {"measurement": "IC50", "setting": "A-375; a-375", "result": "Not Active"}
    ]},
    {"smiles": "O=C(N[C@@H](CCCn1cc(-c2ccc(Br)cc2)nn1)C(=O)O)OCC1c2ccccc2-c2ccccc21", "values": [
      {"measurement": "IC50", "setting": "SJSA-1; sjsa-1", "result": "Not Active"},
      {"measurement": "IC50", "setting": "A-375; a-375", "result": "Not Active"}
    ]},
    {"smiles": "O=C(N[C@@H](CCCn1cc(-c2ccc(Cl)cc2)nn1)C(=O)O)OCC1c2ccccc2-c2ccccc21", "values": [
      {"measurement": "IC50", "setting": "SJSA-1; sjsa-1", "result": "Not Active"},
      {"measurement": "IC50", "setting": "A-375; a-375", "result": "Not Active"}
    ]},
    {"smiles": "O=C(N[C@@H](CCCn1cc(-c2ccc(C(F)(F)F)cc2)nn1)C(=O)O)OCC1c2ccccc2-c2ccccc21", "values": [
      {"measurement": "IC50", "setting": "SJSA-1; [1]", "result": 31.2, "unit": "µM"},
      {"measurement": "IC50", "setting": "A-375; Homo sapiens, A-375, read-out: IC50", "result": 49.3, "unit": "µM"}
    ]},
    {"smiles": "CC(C)(C)OC(=O)Nc1ccc(-c2cn(CCC[C@H](NC(=O)OCC3c4ccccc4-c4ccccc43)C(=O)O)nn2)cc1", "values": [
      {"measurement": "IC50", "setting": "SJSA-1; sjsa-1", "result": "Not Active"},
      {"measurement": "IC50", "setting": "A-375; a-375", "result": "Not Active"}
    ]},
    {"smiles": "O=C(N[C@@H](CCCn1cc(-c2ccc(I)cc2)nn1)C(=O)O)OCC1c2ccccc2-c2ccccc21", "values": [
      {"measurement": "IC50", "setting": "SJSA-1; sjsa-1", "result": "Not Active"},
      {"measurement": "IC50", "setting": "A-375; a-375", "result": "Not Active"}
    ]}
  ]
}
